The test system of assay [1] is PC-12. Description: Evaluated for neuronal cell protectivity against beta-amyloid (25,35) insult towards PC12 rat pheochromocytoma cell; No protection. In kind it is functional.
Assay [2] relates to IMR-32. Description: (§1) Evaluated for neuronal cell protectivity against beta-amyloid (25,35) insult towards IMR-32 human neuroblastoma cell; No protection. The assay is classed as functional.
Assay [3] has as its system PC-12. The experiment in a line: Evaluated for neuronal cell protectivity against beta-amyloid (25,35) insult towards PC12 rat pheochromocytoma cell.
Assay [4] has as its system IMR-32. Described as §1. In kind it is functional, cell-based.
Assay [5] relates to IMR-32. The experiment in a line: Evaluated for neuronal cell protectivity against beta-amyloid (25,35) insult towards IMR-32 human neuroblastoma cell. The assay is classed as functional. The conditions noted are these: read-out: ED50 (the source's name).
Assay [6] deals with PC-12. Description: Evaluated for neuronal cell protectivity against beta-amyloid (25,35) insult towards PC12 rat pheochromocytoma cell. The assay is classed as functional. The conditions noted are these: read-out: ED50 (the source's name).

Among the data in ChEMBL document CHEMBL1133965, “Total synthesis of Calebin-A, preparation of its analogues, and their neuronal cell protectivity against beta-amyloid insult” (2001) are ED50 and EC50 values, retold here.

≈ marks a conversion by molar mass, not a printed value.

For `COc1cc(/C=C/C(=O)COC(=O)/C=C/c2ccc(Cl)cc2)ccc1O`, the ED50 entry in the assay with PC-12 [1] and in the assay on IMR-32 [2] was “No protection” throughout.

With `COc1cccc(/C=C/C(=O)OCC(=O)/C=C/c2ccc(O)c(OC)c2)c1`, the ED50 result in the assay on PC-12 [1] and in the assay on IMR-32 [2] was “No protection” in each case.

The compound `COc1cc(/C=C/C(=O)COC(=O)/C=C/c2ccc(O)cc2)ccc1O` registered an ED50 in the assay on PC-12 [3] of 0.7 µg/mL (≈ 1.98 µM). Moreover, in the assay with IMR-32 [2] (read-out: ED50 (the source's name)), the EC50 is 1.2 µg/mL (≈ 3.39 µM).

Turning to `COc1cc(/C=C/C(=O)COC(=O)/C=C/c2ccc(Br)cc2)ccc1O`, the ED50 entry in the assay with PC-12 [1] and with IMR-32 [2] was “No protection” each time.

Turning to `COc1cc(/C=C/C(=O)COC(=O)/C=C/c2ccc(C)cc2)ccc1O`, the ED50 entry in the assay on PC-12 [1] and in the assay with IMR-32 [2] was “No protection” each time.

As to `COc1cc(/C=C/C(=O)COC(=O)/C=C/c2ccc(OC(C)=O)cc2)ccc1O`, the ED50 result with PC-12 [1] and with IMR-32 [2] was “No protection” throughout.

As to `COc1ccc(/C=C/C(=O)OCC(=O)/C=C/c2ccc(O)c(OC)c2)cc1`, the ED50 entry with PC-12 [1] and in the assay with IMR-32 [2] was “No protection” each time.

As to `COc1cc(/C=C/C(=O)COC(=O)/C=C/c2ccc(OC(C)=O)c(OC(C)=O)c2)ccc1O`, the ED50 result with IMR-32 [4] and in the assay with PC-12 [1] was “No protection” each time.

As to `COc1cc(/C=C/C(=O)COC(=O)/C=C/c2ccc(O)c(OC)c2)ccc1O` [CALEBI A], the EC50 with IMR-32 [5] was determined as 1.4 µg/mL (≈ 3.64 µM); with PC-12 [6], 1 µg/mL (≈ 2.6 µM).

Regarding `COc1cc(/C=C/C(=O)CC(=O)/C=C/c2ccc(O)c(OC)c2)ccc1O` [CURCUMIN], the EC50 in the assay with IMR-32 [5] stood at 7.4 µg/mL (≈ 20.1 µM); in the assay on PC-12 [6], 7.1 µg/mL (≈ 19.3 µM).

Take `COc1cc(/C=C/C(=O)COC(=O)/C=C/c2cccc(OC(C)=O)c2)ccc1O`: the ED50 result in the assay on PC-12 [1] and in the assay with IMR-32 [2] was “No protection” each time.

Regarding VITAMIN E, the ED50 entry in the assay with PC-12 [1] and in the assay on IMR-32 [2] was “No protection” throughout.

Consider `COc1cc(/C=C/C(=O)COC(=O)/C=C/c2ccccc2)ccc1O`, for which the ED50 entry with PC-12 [1] and in the assay on IMR-32 [2] was “No protection” in each case.

Consider `COc1cc(/C=C/C(=O)COC(=O)/C=C/c2cccc(O)c2)ccc1O`, for which the EC50 worked out at 15.8 µg/mL (≈ 44.6 µM) in the assay with IMR-32 [5] and 13.2 µg/mL (≈ 37.3 µM) with PC-12 [6].

On to `COc1cc(/C=C/C(=O)COC(=O)/C=C/c2ccc(O)c(O)c2)ccc1O`, for which the EC50 in the assay with IMR-32 [5] is 7.9 µg/mL (≈ 21.3 µM); in the assay with PC-12 [6], 7.3 µg/mL (≈ 19.7 µM).

Take `COc1cc(/C=C/C(=O)COC(=O)/C=C/c2ccc3c(c2)OCO3)ccc1O`: the ED50 result in the assay on PC-12 [1] and in the assay on IMR-32 [2] was “No protection” in each case.
